{"source": "paper PMC9821308", "about": "“The Inhibitory Properties of a Novel, Selective LMTK3 Kinase Inhibitor” (International Journal of Molecular Sciences, 2023)", "key": {"[1]": {"target": "T1, LMTK3 (lemur tyrosine kinase 3) (Homo sapiens, UniProt Q96Q04)", "T1 construct": "LMTK3cat (LMTK3 kinase domain)", "T1 sequence (Q96Q04 133-411 limits assumed)": "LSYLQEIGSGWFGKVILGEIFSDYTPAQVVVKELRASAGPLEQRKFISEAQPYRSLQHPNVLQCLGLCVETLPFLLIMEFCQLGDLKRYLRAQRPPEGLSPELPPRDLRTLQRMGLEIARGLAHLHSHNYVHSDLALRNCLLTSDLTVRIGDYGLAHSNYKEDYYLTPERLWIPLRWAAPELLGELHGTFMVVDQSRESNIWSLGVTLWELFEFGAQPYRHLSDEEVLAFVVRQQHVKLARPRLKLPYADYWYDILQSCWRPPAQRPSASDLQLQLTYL", "assay": "microscale thermophoresis; also […] kinase assay on HSP27 (IC50 approximately […])", "assay_type": "binding"}, "[2]": {"target": "MKNK1 (Homo sapiens, UniProt Q9BUB5)", "assay": "KINOMEscan active site-directed competition binding at […]; also radioactive filter binding assay at […]"}, "[3]": {"target": "MKNK2 (Homo sapiens, UniProt Q9HBH9)", "assay": "KINOMEscan active site-directed competition binding at […]; also radioactive filter binding assay at […]"}, "[4]": {"target": "T2, TRKA (Homo sapiens, UniProt P04629)", "T2 construct": "gene NTRK1", "assay": "KINOMEscan active site-directed competition binding at […] ([…]); also radioactive filter binding assay at […]"}, "[5]": {"target": "PIM1 (Homo sapiens, UniProt P11309)", "assay": "KINOMEscan active site-directed competition binding at […]; also radioactive filter binding assay at […]"}, "[6]": {"target": "PDGFRA (Homo sapiens, UniProt P16234)", "assay": "KINOMEscan active site-directed competition binding at […]; also radioactive filter binding assay at […]"}}, "data": [{"molecule": "Clc1ccc(-c2cnc3sc(NCc4cccnc4)nn23)cc1", "note": "[C36]", "values": [{"measurement": "Kd", "setting": "[1]", "result": "1.87 ± 0.2", "unit": "µM"}, {"measurement": "KINOMEscan active site-directed competition binding at 5 μM; also radioactive fi", "setting": "[2]", "result": "overlap of kinases targeted by C36 that have been identified via both assays (namely PIM1, TRKA, PDGFRA, MKNK1, MKNK2)"}, {"measurement": "KINOMEscan active site-directed competition binding at 5 μM; also radioactive fi", "setting": "[3]", "result": "overlap of kinases targeted by C36 that have been identified via both assays (namely PIM1, TRKA, PDGFRA, MKNK1, MKNK2)"}, {"measurement": "KINOMEscan active site-directed competition binding at 5 μM (>90%); also radioac", "setting": "[4]", "result": "overlap of kinases targeted by C36 that have been identified via both assays (namely PIM1, TRKA, PDGFRA, MKNK1, MKNK2)"}, {"measurement": "KINOMEscan active site-directed competition binding at 5 μM; also radioactive fi", "setting": "[5]", "result": "overlap of kinases targeted by C36 that have been identified via both assays (namely PIM1, TRKA, PDGFRA, MKNK1, MKNK2)"}, {"measurement": "KINOMEscan active site-directed competition binding at 5 μM; also radioactive fi", "setting": "[6]", "result": "overlap of kinases targeted by C36 that have been identified via both assays (namely PIM1, TRKA, PDGFRA, MKNK1, MKNK2)"}]}]}
